In patent US20030086868A1, “Actinium-225 complexes and conjugates for radioimmunotherapy” (priority 2002, published 2003):

What was measured:
[1] = In vivo biodistribution in nu/nu mice; conditions: for 225Ac Biodistribution, Blood / 225Ac Biodistribution, Bone / 225Ac Biodistribution, Kidneys / 225Ac Biodistribution, Liver: average; for pattern of distribution: intraperitoneal, approx. 2 μCi, nu/nu mice, period of 5 days
Method: Counting was carried out half an hour after sample preparation.

[2] = in vivo; cited from earlier work
[3] = molecular target: T1, antigen excess (HuM195 is anti-CD33) (Homo sapiens, UniProt P20138); assay: Cell-based immunoreactivity study (binding of labeled antibody to antigen excess)
T1 construct: host or cells: unnamed antigen-bearing cells
T1 sequence (P20138 18-364): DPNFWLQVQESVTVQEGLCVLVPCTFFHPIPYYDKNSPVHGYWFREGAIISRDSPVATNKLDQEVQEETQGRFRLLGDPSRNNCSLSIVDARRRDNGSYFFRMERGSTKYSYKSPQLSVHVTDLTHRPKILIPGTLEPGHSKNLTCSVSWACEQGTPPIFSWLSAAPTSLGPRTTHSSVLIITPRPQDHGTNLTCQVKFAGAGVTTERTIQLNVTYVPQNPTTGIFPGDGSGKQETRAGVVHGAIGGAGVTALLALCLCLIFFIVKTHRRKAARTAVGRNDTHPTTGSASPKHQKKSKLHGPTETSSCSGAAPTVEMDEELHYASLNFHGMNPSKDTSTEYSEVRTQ

[4] = tested on: antigen positive cell line; assay: In-vitro cell kill (3H-thymidine incorporation), antigen positive cell line; assay type: cell-based
[5] = tested on: antigen negative cell line; assay: In-vitro cell kill (3H-thymidine incorporation), antigen negative cell line; assay type: cell-based
target cells = assay: Internalization of isotope into target cells; assay type: cell-based; conditions: in 5 hours

Molecule	225Ac Biodistribution, Blood ([1]; 1 d)	225Ac Biodistribution, Blood ([1]; 2 d)	225Ac Biodistribution, Blood ([1]; 5 d)	225Ac Biodistribution, Bone ([1]; 1 d)	225Ac Biodistribution, Bone ([1]; 2 d)	225Ac Biodistribution, Bone ([1]; 5 d)	225Ac Biodistribution, Kidneys ([1]; 1 d)	225Ac Biodistribution, Kidneys ([1]; 2 d)	225Ac Biodistribution, Kidneys ([1]; 5 d)	225Ac Biodistribution, Liver ([1]; 1 d)	225Ac Biodistribution, Liver ([1]; 2 d)	225Ac Biodistribution, Liver ([1]; 5 d)	pattern of distribution [1]	excretion [2]	liver uptake [2]	immunoreactive fraction [3]	LD50 in a 2-day assay ([4]; 2-day assay, positive cell line)	LD50 in a 5-day assay ([4]; 5-day assay, specific activity of 0.035 Ci/g, 3H-thymidine incorporation)	LD50 in a 2-day assay [5]	isotope internalized in the target cells (target cells)
CC(=O)[O-].CC(=O)[O-].CC(=O)[O-].[225Ac+3] [^225Ac Acetate, reference compound]	0.1 % dose/g	0.2 % dose/g	0.0 % dose/g	13.3 % dose/g	12.0 % dose/g	17.1 % dose/g	3.8 % dose/g	3.2 % dose/g	2.8 % dose/g	46.6 % dose/g	43.1 % dose/g	68.5 % dose/g	held up in the liver and bone but cleared from blood							
O=P(O)(O)CN(CCN(CP(=O)(O)O)CP(=O)(O)O)CP(=O)(O)O [^225Ac-EDTMP, ethylenediaminetetra-methylenephosphonic acid, metal not drawn]														poor	still substantial					
^225Ac-HuM195-MeO-DOTA	10.1 % dose/g	10.2 % dose/g	4.5 % dose/g	3.8 % dose/g	4.1 % dose/g	5.3 % dose/g	4.6 % dose/g	5.2 % dose/g	4.6 % dose/g	8.8 % dose/g	10.0 % dose/g	20.7 % dose/g	longer blood circulation time and less bone uptake			~70%	about 1.4 nCi/ml	~0.3 nCi/ml	about 28 nCi/ml	more than 50%
